Measured values: patent publication US8551510B2, “Bed bug control and repellency” (Bedoukian Research, Inc., priority 2009, dated 2013)
Like-named read-outs stand apart in the source and are kept apart here.

System: bed bugs
Test: Choice test with unconcealed bed bugs on filter paper discs, test compound in acetone vs. acetone only (percent repellency)
Assay type: in vivo
Settings: for percent repellency at 2 hour: 2 hour post-treatment (Table 2)
Experimental: This test was undertaken employing unconcealed bugs. Two semicircular discs of filter paper, 9 cm in radius treated with 1 ml of solution to wet the entire surface, one treated with an acetone solution of the test compound and one only acetone treated were placed on the lid of a Petri dish. Five replicates of ten (10) bed bugs were release into the center of the lids of the Petri dish with a choice of the test compound treated or only acetone treated substrate. The distribution of bed bugs was recorded at ½, […], 2, 6 and 24 hours post-treatment. Paired t-tests were conducted for each treatment to ascertain whether or not there was a statistically significant difference in the number of bed bugs on the treated vs. untreated discs.

[1] = chemical at 0.5% in acetone on filter paper, 0.5 hr post-treatment, read-out: percent repellency at 0.5 hr
[2] = chemical at 0.5% in acetone on filter paper, 1 hr post-treatment, read-out: percent repellency at 1 hr
[3] = chemical at 0.5% in acetone on filter paper, 6 hr post-treatment, read-out: percent repellency at 6 hr
[4] = chemical at 0.5% in acetone on filter paper, 24 hr post-treatment, read-out: percent repellency at 24 hr
[5] = chemical at 0.5%, average of 0.5, 1, 6 and 24 hr, read-out: percent repellency, Average
[6] = chemical at 0.2% in acetone on filter paper, 0.5 hr post-treatment, read-out: percent repellency at 0.5 hr
[7] = chemical at 0.2% in acetone on filter paper, 1 hr post-treatment, read-out: percent repellency at 1 hr
[8] = chemical at 0.2% in acetone on filter paper, 6 hr post-treatment, read-out: percent repellency at 6 hr
[9] = chemical at 0.2% in acetone on filter paper, 24 hr post-treatment, read-out: percent repellency at 24 hr
[10] = chemical at 0.2%, average of 0.5, 1, 6 and 24 hr, read-out: percent repellency, Average
[11] = 0.5 h, read-out: percent repellency at 0.5 hr
[12] = 1 h, read-out: percent repellency at 1 hr
[13] = 6 h, read-out: percent repellency at 6 hr
[14] = 24 h, read-out: percent repellency at 24 hr
[15] = read-out: percent repellency, Average

Row | SMILES | pest or weed control at 0.5 % [1] | pest or weed control at 0.5 % [2] | pest or weed control at 0.5 % [3] | pest or weed control at 0.5 % [4] | pest or weed control at 0.5 % [5] | other results
1 | CC(C)=CCCC(C)=CCC1CCCC1=O (stereo not drawn) [2-Geranylcyclopentanone (Apritone), 2-(3,7-dimethylocta-2,6-dienyl)cyclopentan-1-one] | 100% | 100% | 100% | 100% | 100% | 
2 | CC/C=C\CC1C(=O)CCC1CC(=O)OC (stereo not drawn) [Methyl jasmonate, (Z)-methyl 2-(3-oxo-2-(pent-2-enyl)cyclopentyl)acetate] |  |  |  |  |  | pest or weed control at 0.2 % [6]: 80%; pest or weed control at 0.2 % [7]: 90%; pest or weed control at 0.2 % [8]: 90%; pest or weed control at 0.2 % [9]: 88%; pest or weed control at 0.2 % [10]: 87%
3 | CCC(=O)/C(C)=C/C1C(C)CC=CC1(C)C (stereo not drawn) [Dimethylionone, (E)-2-methyl-1-(2,2,6-trimethyl-1-cyclohex-3-enyl)pent-1-en-3-one] | 90% | 96% | 96% | 92% | 93.5% | 
4 | CCCCCC1C(=O)CCC1CC(=O)OCC=C(C)C (stereo not drawn) [Prenyl dihydrojasmonate, 3-methylbut-2-enyl 2-(3-oxo-2-pentylcyclopentyl)acetate] |  |  |  |  |  | percent repellency at 2 hour (chemical at 1.0%): 82%
5 | C=C(C)C1CCC2=CC(=O)CC(C)C2(C)C1 (stereo not drawn) [Nootkatone, 4,4a-dimethyl-6-prop-1-en-2-yl-3,4,5,6,7,8-hexahydronaphthalen-2-one] | 100% | 100% | 100% | 100% | 100% | percent repellency at 2 hour (chemical at 0.1%): 60%
6 | CCCCCCCCC(=O)C(C)=O [2,3-Undecanedione, reference compound] | 90% | 60% | 60% | 90% | 75% | 
7 | O=C1CCC/C=C\CCCCCCCCCC1 [Cyclohexadec-5-ene-1-one, (5Z) cyclohexadec-5-ene-1-one] |  |  |  |  |  | pest or weed control at 0.1 % (chemical at 0.1% in acetone on filter paper, 0.5 hr post-treatment, read-out: percent repellency at 0.5 hr): 94%; pest or weed control at 0.1 % (chemical at 0.1% in acetone on filter paper, 1 hr post-treatment, read-out: percent repellency at 1 hr): 94%; pest or weed control at 0.1 % (chemical at 0.1% in acetone on filter paper, 6 hr post-treatment, read-out: percent repellency at 6 hr): 100%; pest or weed control at 0.1 % (chemical at 0.1% in acetone on filter paper, 24 hr post-treatment, read-out: percent repellency at 24 hr): 100%; pest or weed control at 0.1 % (chemical at 0.1%, average of 0.5, 1, 6 and 24 hr, read-out: percent repellency, Average): 97%
8 | CC1(C)C2CCC3(C2)C1C(=O)CCC3(C)C (stereo not drawn) [Isolongifolanone, 2,2,7,7-tetramethyltricyclo[6.2.1.01,6]undecan-5-one] | 90% | 88% | 98% | 98% | 93% | 
9 | CCCCCC=CCC1CCCC1=O (stereo not drawn) [2-Octenylcyclopentanone, 2-(2-octen-1-yl)cyclopentanone] | 100% | 100% | 100% | 100% | 100% | 
10 | CC(C)CCCC(C)CCC1CCCC1=O (stereo not drawn) [Tetrahydroapritone] |  |  |  |  |  | percent repellency at 2 hour (chemical at 0.2%): 82%
11 | O=C1CCCC1C1CCCC1 (stereo not drawn) [2-Cyclopentylcyclopentanone, 2-cyclopentylcyclopentanone] | 90% | 90% | 76% | 70% | 81% | 
12 | CC1=CCCC(C)(C)C1/C=C/C(=O)CC(C)C (stereo not drawn) [Isobutylionone, (E)-5-Methyl-1-(2,6,6-trimethyl-1-cyclohex-2-enyl) hex-1-en-3-one] | 100% | 98% | 94% | 94% | 96.5% | 
13 | CCC(C)=CCCC(C)=CCC1CCCC1=O (stereo not drawn) [Methyl Apritone, 2-(3,7-dimethyl-2,6-nonadienyl)cyclopentanone] |  |  |  |  |  | pest or weed control at 0.2 % [6]: 100%; pest or weed control at 0.2 % [7]: 100%; pest or weed control at 0.2 % [8]: 100%; pest or weed control at 0.2 % [9]: 100%; percent repellency at 2 hour (chemical at 0.2%): 90%; pest or weed control at 0.2 % [10]: 100%
14 | CCCCCCCCCC(C)=O [Methyl nonyl ketone, methyl nonyl ketone] |  |  |  |  |  | pest or weed control at 0.5 % [11]: 85.7%; pest or weed control at 0.5 % [12]: 84%; pest or weed control at 0.5 % [13]: 80%; pest or weed control at 0.5 % [14]: 74%; pest or weed control at 0.5 % [15]: 80.9%
15 | CCCCCC1C(=O)CCC1CC(=O)OCC (stereo not drawn) [Ethyl dihydrojasmonate, ethyl 2-(3-oxo-2-pentylcyclopentyl)acetate] |  |  |  |  |  | percent repellency at 2 hour (chemical at 0.2%): 90%
16 | CC(=O)CCC=C(C)CCC=C(C)C [Geranylacetone, 6,10-dimethyl-5,9-undecadien-2-one] | 100% | 100% | 100% | 100% | 100% | 
17 | CCCCCCCCCCC(C)=O [Methyl decyl ketone, 2-dodecanone] | 100% | 100% | 100% | 100% | 100% | 
18 | CCCCCC1C(=O)CCC1CC(=O)OC (stereo not drawn) [Methyl dihydrojasmonate, methyl 2-(3-oxo-2-pentylcyclopentyl)acetate] |  |  |  |  |  | pest or weed control at 0.2 % [6]: 86%; pest or weed control at 0.2 % [7]: 96%; pest or weed control at 0.2 % [8]: 94%; pest or weed control at 0.2 % [9]: 92%; percent repellency at 2 hour (chemical at 0.2%): 98%; pest or weed control at 0.2 % [10]: 92%
19 | CCCCOC(=O)CCC(C)=O [Butyl levulinate, reference compound] |  |  |  |  |  | pest or weed control at 0.2 % [6]: 64%; pest or weed control at 0.2 % [7]: 68%; pest or weed control at 0.2 % [8]: 62%; pest or weed control at 0.2 % [9]: 60%; pest or weed control at 0.2 % [10]: 64%
20 | CC(=O)C(C)=CC1C(C)=CCCC1(C)C (stereo not drawn) [Alpha Isomethylionone, 3-methyl-4-(2,6,6-trimethyl-2-cyclohexen-1-yl)-3-buten-2-one] | 100% | 100% | 100% | 84% | 96% | 
21 | CCCCCCC=CC(C)=O [3-Decen-2-one] | 82% | 84% | 78% | 76% | 80% | 
22 | CCCCCC1CC(=O)C=C(C)C1C(=O)OCC (stereo not drawn) [ethyl 2-methyl-4-oxo-6-pentylcyclohec-2-enecarboxylate] |  |  |  |  |  | percent repellency at 2 hour (chemical at 0.2%): 62%
23 | CCCCCC1C(=O)CCC1CC(=O)OCCC (stereo not drawn) [Propyl dihydrojasmonate, propyl 2-(3-oxo-2-pentylcyclopentyl)acetate] |  |  |  |  |  | percent repellency at 2 hour (chemical at 0.2%): 78%
24 | CC1=CCC(C(C)CC2CCCC2=O)CC1 (stereo not drawn) [Nectaryl ™, 2-(2-(4-methyl-3-cyclohexen-1-yl)propyl) cyclopentanone] | 87.8% | 95.9% | 100% | 100% | 95.9% | 
25 | CCCCCCCCCCCC(C)=O [Methyl undecyl ketone, 2-tridecanone] | 100% | 100% | 100% | 100% | 100% | 
26 | CC(=O)C=CC1C(C)=CCCC1(C)C (stereo not drawn) [Alpha Ionone, 4-(2,6,6-trimethyl-2-cyclohexenyl)-3-buten-2-one] |  |  |  |  |  | pest or weed control at 0.5 % [11]: 100%; pest or weed control at 0.5 % [12]: 100%; pest or weed control at 0.5 % [13]: 100%; pest or weed control at 0.5 % [14]: 84%; pest or weed control at 0.5 % [15]: 96%
27 | CCC(C)CCCC(C)CCC1CCCC1=O (stereo not drawn) [Tetrahydro methyl apritone, 2-(3,7-dimethynonyl)cyclopentanone] |  |  |  |  |  | percent repellency at 2 hour (chemical at 0.2%): 88%
